One test relates to BACE-1. Put plainly: BACE-1 protein expression in SHSY cells (Western blot). It counts as cell-based, human. Particulars: 24 hours, corrected for actin. On the technique in general: Immunoblotting shows a protein as a band on a membrane.
The next test deals with IL-1β. Put plainly: LPS-induced IL-1β release in whole human blood. It counts as cell-based. The procedure: Whole human blood was treated with LPS to stimulate inflammatory responses. […] The inflammatory molecule IL-1β was measured after 16 hours.

Consider `C1=CCC(c2cccnc2)NC1` (racemic) [Anatabine, 1,2,3,6-tetrahydro-[2,3′]bipyridinyl], for which the BACE-1 protein expression result in the test on BACE-1 is on record as “reduced BACE expression”. For the same compound, the “IL-1β production over time” value in the test on IL-1β (whole human blood + LPS (Example 15)) is “rapid and continuous effect on the suppression”. Also, the “accumulation of IL-1β” value in the test with IL-1β (whole human blood + LPS, 16 hours (Example 13)) is given as “reduced accumulation of IL-1β”. In addition, in the test with IL-1β (whole human blood + LPS, 16 hours (Example 14)), the “IL-1β, area under the dose-response curve” value was “reduced accumulation of IL-1β”.

These data come from patent US20160030407A1, “Method of Treating Inflammatory Lung Disease” (priority 2010, published 2016).
